Laboratory results taken from patent US5321039A, “Method of inducing a histamine agonist action on H2 receptors” (Societe Civile Bioprojet, priority 1990, dated 1994).

Assays:
H3 receptor = biological target: T1, H3 receptor (Rattus norvegicus, UniProt Q9QYN8); assay: inhibition of liberation and synthesis of endogenous histamine from depolarized brain sections (H3 agonism); type: cell-based; conditions: for potency relative to histamine (times more powerful): H3 agonist
T1 construct: liberation and synthesis of endogenous histamine from depolarized brain sections; from tissue; host or cells: brain sections (slices)

[1] = system: histamine synthesis in the brain of rats; assay: inhibition of histamine synthesis in vivo (brain, peripheral organs)
histamine H3 receptor = conditions: EP-A-0 420 396; cited from earlier work
[2] = system: secretion of gastric acid which is stimulated by histamine; conditions: opposes action of histamine; Ganellin; cited from earlier work
histamine H2 receptor = conditions: Sterk et al.; cited from earlier work

T1 sequence (Q9QYN8 whole entry): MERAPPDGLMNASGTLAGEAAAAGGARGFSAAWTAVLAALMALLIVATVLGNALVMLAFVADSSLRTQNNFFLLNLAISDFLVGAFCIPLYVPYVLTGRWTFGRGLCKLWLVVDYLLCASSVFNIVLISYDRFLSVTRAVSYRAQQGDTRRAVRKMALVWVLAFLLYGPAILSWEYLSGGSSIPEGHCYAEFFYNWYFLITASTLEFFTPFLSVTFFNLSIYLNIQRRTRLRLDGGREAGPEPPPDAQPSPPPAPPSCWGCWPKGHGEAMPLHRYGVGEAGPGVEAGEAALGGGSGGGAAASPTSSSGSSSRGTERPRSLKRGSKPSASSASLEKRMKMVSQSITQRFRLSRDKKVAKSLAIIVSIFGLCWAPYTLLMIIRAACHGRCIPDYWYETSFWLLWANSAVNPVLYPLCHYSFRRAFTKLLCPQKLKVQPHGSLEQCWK

Q: For CN=C(N)SCCc1c[nH]cn1 [Compound II], which “type of agonism on the H3 receptor” value (H3 receptor) is on record?
A: Its value is “full and comparatively powerful”.

Q: And the “potency relative to histamine (times more powerful)” value (H3 receptor)?
A: The value was “about 6 times”.

Q: What about the EC50 (H3 receptor; read-out: EC50 as H3 agonist) of the same compound?
A: Its EC50 is 10 nM.

Q: What about the “H3 agonist activity in vivo” value ([1]; in vivo test not specified) of the same compound?
A: Its value is “active in vivo”.

Q: For N=C(N)CCCc1c[nH]cn1 [Compound III, 4-(4(5)-imidazolyl) butyramidine], which “H3 agonist potency and selectivity in words” value (histamine H3 receptor) is on record?
A: Its value is “highly potent selective histamine H3 -agonists”.

Q: For N=C(N)SCCc1cnc[nH]1 [Compound I, S-[2-(4(5)-imidazolyl)-ethyl] isothiourea], which “type of agonism on the H3 receptor” value (H3 receptor) is on record?
A: The value was “full histamine agonist”.

Q: And the “potency relative to histamine (times more powerful)” value (H3 receptor)?
A: The value was 62 times.

Q: What about the “concentration for H3 relative to that necessary for engagement of the H2 receptor (times lower)” value (H3 receptor; H3 versus H2) of the same compound?
A: Its value is “about 100,000 times”.

Q: What about the “concentration stimulating the H3 receptor” value (H3 receptor; depolarized brain sections) of the same compound?
A: The value was “about 1 nanomolar”.

Q: And the “crossing of the blood-brain barrier” value ([1]; inferred from brain effect at oral 3 mg/kg in rats)?
A: The value was “adequately crosses the blood-brain barrier”.

Q: What about the “inhibition of histamine synthesis in peripheral organs such as the lungs” value ([1]; peripheral organs, lungs) of the same compound?
A: Its value is “inhibits at a very low dose”.

Q: What about the “inhibition of histamine synthesis in the brain” value ([1]; rats, oral dose of 3 mg/kg) of the same compound?
A: The value was “maximum inhibition”.

Q: And the “50% inhibiting dose on rat gastric secretion” value [2]?
A: Its value is “about 200 μmoles/kg”.

Q: And the “concentration stimulating the H2 receptor” value (histamine H2 receptor)?
A: The value was “about 0.1 mM”.

Q: What about the “partial agonist efficacy at histamine H2 receptor” value (histamine H2 receptor) of the same compound?
A: Its value is 50%.

Q: What about the “H3 agonist potency and selectivity in words” value (histamine H3 receptor) of the same compound?
A: The value was “highly potent selective histamine H3 -agonists”.
